In assay [1] the test system is MCF7. Put plainly: Growth inhibition of human MCF7 cells at 10 uM after 24 hrs by MTS assay relative to control. It counts as functional. The note with it: MCF7, 24 h, read-out: GI.
The test system of assay [2] is SW480. Put plainly: Growth inhibition of human SW480 cells at 10 uM after 24 hrs by MTS assay relative to control. The assay is classed as functional. The note with it: SW480, 24 h, read-out: GI. (In general: Tetrazolium assays rely on reduction of a dye to a coloured formazan, in cell work by metabolically active cells.)
Assay [3] relates to HepG2. Put plainly: Growth inhibition of human HepG2 cells at 10 uM after 24 hrs by MTS assay relative to control. It counts as functional. The note with it: HepG2, 24 h, read-out: GI.
Assay [4] relates to RAW264.7. Put plainly: Antiinflammatory activity in mouse RAW264.7 cells assessed as inhibition of LPS-induced NO production at 10 uM after 24 hrs by Griess reagent based assay relative to control. The assay is classed as functional. The note with it: RAW264.7, 24 h. A general note: Griess reagent forms a coloured azo dye with nitrite.
The species named for assay [5] is Homo sapiens. Put plainly: Inhibition of LPS-induced NF-kappaB transcription (unknown origin) expressed in human SW480 cells at 10 uM by luciferase reporter gene assay. It counts as cell-based.
The target in assay [6] is T1, Tyrosine-protein phosphatase non-receptor type 1 (Homo sapiens) (UniProt P18031).
T1 sequence (whole entry): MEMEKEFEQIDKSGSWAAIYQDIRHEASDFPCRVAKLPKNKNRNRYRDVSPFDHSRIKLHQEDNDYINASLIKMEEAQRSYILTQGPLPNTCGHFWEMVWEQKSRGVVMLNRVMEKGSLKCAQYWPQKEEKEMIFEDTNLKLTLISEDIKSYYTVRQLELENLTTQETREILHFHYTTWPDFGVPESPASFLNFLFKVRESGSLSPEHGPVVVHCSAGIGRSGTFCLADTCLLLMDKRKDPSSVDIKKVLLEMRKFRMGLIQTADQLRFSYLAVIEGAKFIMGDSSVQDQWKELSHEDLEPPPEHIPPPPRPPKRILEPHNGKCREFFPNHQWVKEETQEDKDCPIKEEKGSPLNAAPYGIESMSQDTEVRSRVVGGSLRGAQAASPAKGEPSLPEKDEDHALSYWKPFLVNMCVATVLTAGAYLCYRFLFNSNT
Put plainly: Inhibition of recombinant human PTP1B using p-nitrophenyl phosphate as substrate at 10 uM after 30 mins relative to control.

For assay [7], the target named is Mushroom tyrosinase (Agaricus bisporus) (UniProt O42713+Q00024+C7FF04+C7FF05). Put plainly: Inhibition of mushroom tyrosinase at 10 uM using L-tyrosine as substrate incubated for 15 mins followed by substrate addition relative to control.

Broadly, the inhibition is the drop in the measured response relative to a control, in per cent. For the compound `CC(C)=CCc1c(O)cc2occ(-c3ccc(O)cc3)c(=O)c2c1O` [WIGHTEONE], the inhibition of growth at 10 µM in assay [1] is 17%; in assay [2], 34%; in assay [3], 6%. The inhibition at 10 µM in assay [4] was determined as 0%. Moreover, the inhibition worked out at 11% in assay [5], 19% in assay [6] and 15% in assay [7].
Turning to `O=C1C[C@@H](c2cc(O)cc(O)c2)Oc2cc(O)ccc21`, the inhibition of growth at 10 µM in assay [1] was 13%; in assay [2], 4%; in assay [3], 0%. The inhibition at 10 µM in assay [4] worked out at 15%. For the same compound, the inhibition was 1% in assay [5], 2% in assay [6] and 12% in assay [7].
`CC(C)=CCc1cc(-c2coc3cc(O)cc(O)c3c2=O)cc(O)c1O` [GLYCYRRHISOFLAVONE]: the figures for the inhibition of growth at 10 µM in assay [1], in assay [2] and in assay [3] were 15%, 18% and 0%, respectively. The inhibition at 10 µM in assay [4] worked out at 3%. For the same compound, the inhibition in assay [5] was 8%; in assay [6], 52%; in assay [7], 8%.
Turning to `O=C(/C=C/c1ccc(O)c(O)c1)c1ccc(O)c(O)c1`, the inhibition of growth at 10 µM in assay [1] was 5%; in assay [2], 10%; in assay [3], 8%. Besides, the inhibition at 10 µM in assay [4] is 1%. The values for the inhibition in assay [5], in assay [6] and in assay [7] were 13%, 1% and 16%, respectively.
On to `CC1(C)C=Cc2c(ccc(-c3coc4cc(O)ccc4c3=O)c2O)O1` [GLABRONE], for which the inhibition of growth at 10 µM is 12% in assay [1], 50% in assay [2] and 16% in assay [3]. Besides, the inhibition at 10 µM in assay [4] is 5%. For the same compound, the inhibition in assay [5] was 15%; in assay [6] it was 69%; in assay [7] it was 3%.
As for `COc1c(/C=C/C(=O)c2ccc(O)cc2)ccc(O)c1CC=C(C)C`, the inhibition of growth at 10 µM is 26% in assay [1], 25% in assay [2] and 22% in assay [3]. For the same compound, in assay [4], the inhibition at 10 µM was 1%. Besides, the inhibition in assay [5] worked out at 9%; in assay [6] it was 20%; in assay [7], 5%.
`CC(C)=CCc1c(O)ccc(-c2coc3cc(O)cc(O)c3c2=O)c1O`: the inhibition of growth at 10 µM in assay [1] came to 18%; in assay [2] it was 26%; in assay [3], 5%. The inhibition at 10 µM in assay [4] came to 20%. The inhibition was 5% in assay [5], 7% in assay [6] and 5% in assay [7].
`CC1(C)C=Cc2cc(-c3coc4cc(O)cc(O)c4c3=O)ccc2O1`: the inhibition of growth at 10 µM is 2 to 23% in assay [1], 13 to 70% in assay [2] and 11% in assay [3]. In addition, in assay [4], the inhibition at 10 µM amounted to 10%. In addition, the inhibition is 27% in assay [5], 27% in assay [6] and 14% in assay [7].
For `CC1(C)C=Cc2c(O)ccc([C@@H]3COc4cc(O)cc(O)c4C3=O)c2O1`, the inhibition of growth at 10 µM amounted to 13% in assay [1], 8% in assay [2] and 6% in assay [3]. Moreover, the inhibition at 10 µM in assay [4] came out at 2%. Moreover, the inhibition in assay [5] is 24%; in assay [6], 1%; in assay [7], 9%.
With `O=c1cc(-c2ccc(O)cc2)oc2cc(O)ccc12`, the inhibition of growth at 10 µM in assay [1] came to 11%; in assay [2] it was 22%; in assay [3] it was 18%. Besides, the inhibition at 10 µM in assay [4] came to 5%. Besides, the inhibition came out at 0% in assay [5], 55% in assay [6] and 11% in assay [7].
On to `CC(C)=CCc1c(O)ccc(-c2coc3cc(O)c(CC=C(C)C)c(O)c3c2=O)c1O`, for which the inhibition of growth at 10 µM in assay [1] stood at 4%; in assay [2], 46%; in assay [3] it was 0%. For the same compound, the inhibition at 10 µM in assay [4] came out at 0%. Further, the inhibition in assay [5] turned out to be 15%; in assay [6], 78%; in assay [7], 2%.
Regarding `O=c1c(-c2ccc(O)c(O)c2)coc2cc(O)ccc12`, the inhibition of growth at 10 µM in assay [1] came out at 0%; in assay [2], 43%; in assay [3], 3%. In assay [4], the inhibition at 10 µM turned out to be 0%. For the same compound, the inhibition in assay [5] was 0%; in assay [6], 28%; in assay [7] it was 9%.
Take `COc1cc(O)ccc1/C=C/C(=O)c1ccc(O)cc1` [ECHINATIN]: the results for the inhibition of growth at 10 µM in assay [1], in assay [2] and in assay [3] were 0%, 24% and 6%, respectively. In assay [4], the inhibition at 10 µM came to 26%. Also, the inhibition in assay [5] was determined as 0%; in assay [6], 75%; in assay [7], 16%.
As for `CC(C)=CCc1cc([C@@H]2CC(=O)c3ccc(O)cc3O2)ccc1O` [ABYSSINONE II], the inhibition of growth at 10 µM in assay [1] turned out to be 25%; in assay [2], 22%; in assay [3], 4%. In addition, the inhibition at 10 µM in assay [4] came out at 8%. For the same compound, the inhibition in assay [5] amounted to 0%; in assay [6], 5%; in assay [7], 4%.
Take `COc1ccc(-c2coc3cc(O)ccc3c2=O)cc1` [FORMONONETIN]: the results for the inhibition of growth at 10 µM in assay [1], in assay [2] and in assay [3] were 2%, 4% and 0%, respectively. In addition, the inhibition at 10 µM in assay [4] turned out to be 0%. Besides, the inhibition in assay [5] is 3%; in assay [6] it was 33%; in assay [7] it was 10%.
`O=c1c(-c2ccc(O)cc2)coc2cc(O)cc(O)c12` [GENISTEIN]: the inhibition of growth at 10 µM in assay [1] was determined as 6%; in assay [2], 21%; in assay [3] it was 29%. Also, in assay [4], the inhibition at 10 µM was 13%. The inhibition in assay [5] is 14%; in assay [6] it was 29%; in assay [7] it was 2%.
`CC1(C)C=Cc2c(ccc(-c3coc4cc(O)cc(O)c4c3=O)c2O)O1` [LICOISOFLAVONE B]: the inhibition of growth at 10 µM in assay [1] is 14%; in assay [2] it was 13%; in assay [3] it was 13 to 14%. Moreover, in assay [4], the inhibition at 10 µM was 10%. Also, the inhibition in assay [5] turned out to be 4%; in assay [6], 69%; in assay [7] it was 14%.
Regarding `CC(C)=CCc1c(O)ccc2c1oc1c3ccc(O)cc3oc(=O)c21` [ISOSOJAGOL], the inhibition of growth at 10 µM was determined as 12% in assay [1], 26% in assay [2] and 23% in assay [3]. Moreover, the inhibition at 10 µM in assay [4] worked out at 15%. In addition, the inhibition in assay [5] turned out to be 28%; in assay [6] it was 21%; in assay [7], 11%.
As for `COc1ccc(-c2coc3c(O)c(O)c(CC=C(C)C)cc3c2=O)cc1`, the inhibition of growth at 10 µM in assay [1] came to 4%; in assay [2], 51%; in assay [3], 48%. Besides, in assay [4], the inhibition at 10 µM was 17%. The inhibition turned out to be 21% in assay [5], 74% in assay [6] and 7% in assay [7].
With `COc1cc([C@H]2COc3cc(O)ccc3C2)ccc1O`, the inhibition of growth at 10 µM in assay [1] is 14%; in assay [2], 24%; in assay [3], 3%. Also, the inhibition at 10 µM in assay [4] was determined as 23%. Further, the inhibition in assay [5] turned out to be 0%; in assay [6], 2%; in assay [7], 6%.
Turning to `CC(C)=CCc1c(O)cc(O)c2c(=O)c(-c3ccc(O)cc3)coc12`, the inhibition of growth at 10 µM in assay [1] turned out to be 23%; in assay [2], 13%; in assay [3], 23%. The inhibition at 10 µM in assay [4] came to 18%. The inhibition is 25% in assay [5], 0% in assay [6] and 16% in assay [7].
Consider `CC(C)=CCc1c(O)cc2occ(-c3ccc4c(c3)C=CC(C)(C)O4)c(=O)c2c1O` [ISOCHANDALON], for which the inhibition of growth at 10 µM is 73% in assay [1], 58 to 81% in assay [2] and 7% in assay [3]. Further, in assay [4], the inhibition at 10 µM came to 0%. Besides, the inhibition in assay [5] amounted to 3%; in assay [6], 94%; in assay [7] it was 3%.
Consider `CC(C)=CCc1c(O)ccc(-c2coc3cc(O)ccc3c2=O)c1O`, for which the values for the inhibition of growth at 10 µM in assay [1], in assay [2] and in assay [3] were 36%, 35% and 11%, respectively. For the same compound, the inhibition at 10 µM in assay [4] amounted to 25%. For the same compound, the inhibition in assay [5] was 3%; in assay [6], 56%; in assay [7] it was 6%.

For the origin of these results see ChEMBL document CHEMBL4033705, “Screening for bioactive natural products from a 67-compound library of Glycyrrhiza inflata” (Bioorg Med Chem, 2017).
